{"source": "patent US9265756B2", "about": "“Crystalline forms of grapiprant” (Aratana Therapeutics Inc., priority 2014, dated 2016)", "key": {"[1]": {"assay": "stability of crystalline forms (slurry experiments)", "conditions": "in 1:1 DCM/acetone (v/v)", "description": "The stability of the crystalline forms was analyzed using slurry experiments. A portion of the solvent of interest was saturated with grapiprant in a small vial. Additional grapiprant was then added to the vial, and the resulting slurry was stirred using a magnetic stir bar."}, "[2]": {"assay": "water activity relating Forms A and D", "type": "physicochemical", "conditions": "room temperature", "experimental": "Overall, FIG. 1 summarizes the relationship of each polymorphic form with relationship to each other. Form J may be converted to Form D by drying in air (1). Form J may be converted to Form A by slurry in DCM/acetone (<1:2 v/v) at 25° C. (2). Form A may be converted to Form J by precipitation from DCM/n-heptane (2:1 v/v) (3). Forms A and D have an aw value of about 0.6 at room temperature (4). Form X may be converted from a slurry mixture of Form D and Form J in DCM/acetone or DCM/n-heptane (2:1 v/v) at room temperature (5). Form X may be converted to Form A by slurry in DCM/acetone (1:1 v/v) (6). Form A may be converted to Form X by slurry in DCM/acetone (≦1:3 v/v (7) or 1:2 v/v with 0.3 wt. % water (8)). Form X2 may be converted to Form A by slurry in DCM/acetone (1:3 v/v) with 0.3 wt. % water (9). Form A may be converted to Form X2 by slurry in acetone with 0.3 wt. % water (10). Form X2 may be converted to Form X3 by drying (11). Form X2 may also be generated by slurry of Forms A and X3 in DCM/acetone (1:3 v/v) with 0.3 wt. % water (12)."}, "[3]": {"assay": "solid form change on heating (XRPD)", "type": "physicochemical", "experimental": "The X-ray powder diffraction (XRPD) pattern was determined using an X-ray diffractometer. The instrument was equipped with a long fine focus X-ray tube (with a copper Kα radiation source operated at 45 kV/40 mA), and a diffracted beam monochromator mounted in front of a scintillation detector. The instrument parameters included a scan range of 3.0 to 40.0 degrees 2-theta, a step size of 0.02 degrees 2-theta, and a scan time of 12.7 seconds per step. The instrument was interfaced with a computer for data acquisition and analysis. Each sample was uniformly crushed with a spatula edge and placed on a quartz, zero-background holder."}, "[4]": {"test_system": "mechanical hyperalgesia induced by carrageenan model", "conditions": "cited from earlier work"}, "[5]": {"test_system": "other human prostanoid receptor subtypes", "conditions": "cited from earlier work"}, "[6]": {"test_system": "thermal hyperalgesia induced by intraplantar injection of PGE2", "conditions": "oral administration; cited from earlier work"}, "[7]": {"test_system": "complete Freund's adjuvant-induced chronic inflammatory pain response", "conditions": "cited from earlier work"}}, "note": "Entries after “also recorded” stand apart in the source; their conditions may differ."}
{"smiles": "CCc1nc2c(C)nc(C)cc2n1-c1ccc(CCNC(=O)NS(=O)(=O)c2ccc(C)cc2)cc1", "note": "[Form A]", "values": [{"measurement": "relative stability of crystalline forms", "setting": "[1]", "result": "more stable than Form J"}, {"measurement": "aw value", "setting": "[2]", "result": "about 0.6"}]}
{"smiles": "CCc1nc2c(C)nc(C)cc2n1-c1ccc(CCNC(=O)NS(=O)(=O)c2ccc(C)cc2)cc1", "note": "[Form J]", "values": [{"measurement": "form after heating (XRPD)", "setting": "[3]; heating to 120° C.", "result": "becomes Form A; also recorded: converted into Form A"}]}
{"smiles": "CCc1nc2c(C)nc(C)cc2n1-c1ccc(CCNC(=O)NS(=O)(=O)c2ccc(C)cc2)cc1", "note": "[Form X]", "values": [{"measurement": "form after heating (XRPD)", "setting": "[3]; heating to 110° C.", "result": "becomes amorphous; also recorded: converted into amorphous"}]}
{"smiles": "CCc1nc2c(C)nc(C)cc2n1-c1ccc(CCNC(=O)NS(=O)(=O)c2ccc(C)cc2)cc1", "note": "[grapiprant, N-{2-[4-(2-ethyl-4,6-dimethyl-1H-imidazo[4,5-c]pyridin-1-yl)phenyl]ethyl}-N′-[(4-methylphenyl)sulfonyl]urea]", "values": [{"measurement": "effect on mechanical hyperalgesia", "setting": "[4]", "result": "significantly reduces"}, {"measurement": "selectivity for the EP4 receptor over other human prostanoid receptor subtypes", "setting": "[5]", "result": "highly selective"}, {"measurement": "ED50, reduction of thermal hyperalgesia", "setting": "[6]", "result": 12.8, "unit": "mg/kg"}, {"measurement": "effect on chronic inflammatory pain response", "setting": "[7]", "result": "reverses"}]}
